Results published in patent US11339165B2, “Pyrazolopyrimidines having activity against the respiratory syncytial virus (RSV)” (priority 2017, dated 2022).
Where two headings read alike, the source gives them in different places.

Legend:
[1] = Cytotoxicity in HeLa cells (ATP content, ATPlite kit); conditions: human
rgRSV224 virus = assay: Antiviral activity: rgRSV224 (GFP) replication in HeLa cells; assay type: cell-based, respiratory syncytial virus (RSV)
HeLa cells [2] = tested on: HeLa cells
in vitro = conditions: human, TOX HELA CC50 (μM)
[3] = Pharmacokinetics after single intravenous administration in the fasted male Beagle dog; assay type: in vivo; conditions: intravenous administration at 1 mg/kg in dogs, first 8 hours after administration
Experimental: E.2 Pharmacokinetics after Single Intravenous Administration in the Fasted Male Beagle Dog
The test compound was dissolved in a 20% (w/v) hydroxypropyl-β-cyclodextrin (HP-beta-CD) solution at a final concentration of 2 mg/mL for the intravenous formulation. NaOH was added to the formulations to facilitate dissolution and after total dissolution the pH was adjusted with HCl to 8.4. The intravenous (IV) formulation was made isotonic with mannitol. Prior to dosing, all formulations were stored at room temperature and protected from light. The IV formulation was dosed in a cephalic vein at 0.5 mL/kg to obtain a final dose of 1 mg/kg.
Three male Beagle dogs, with a mean weight of 10.9±1.1 kg, were used. A complete concentration time profile was obtained from each individual animal. Prior to dosing, animals were fasted overnight. Their standard dry diet was returned to them at 2 hours post dose. Tap water was available ad libitum.
From each individual animal, blood samples were taken at 7 and 20 minutes, 1, 2, 4, 7, 24 and 48 hours after intravenous dose administration. […] Plasma samples were analysed using a qualified research LC-MS/MS method. The key analytical performance (linearity, upper and lower limit of quantification, accuracy and precision) of the method was reported together with the plasma concentrations. The lower limit of quantification (LLOQ) was 10.0 ng/mL. […]

HeLa cells [4] = assay: Cytotoxicity in HeLa cells (ATP content, ATPlite kit); conditions: read-out: TOX HELA CC50; HeLa cells, three days incubation, ATP content
[5] = human respiratory syncytial virus, HeLa, 72 h, read-out: RSV HELA EC50 (μM), rgRSV224 virus (MOI=1), HeLa cells, GFP expression three days post-virus exposure
[6] = rgRSV224 virus (MOI=1), HeLa cells, GFP expression three days post-virus exposure, read-out: RSV HELA EC50

Compound | EC50 (rgRSV224 virus; [5]) [µM] | CC50 at 3 days (in vitro) [µM] | melting point [°C] | other results
C[C@@H]1c2ccccc2CCN1C(=O)c1cc(C2CC2)n2nc(-c3ccc(N4CC[C@@H](NP(C)(C)=O)C4)cc3F)cc2n1 [Compound 30, (1R)-2-(7-Cyclopropyl-2-{4-[(3R)-3-[(dimethylphosphoryl)amino]pyrrolidin-1-yl]-2-fluorophenyl}pyrazolo[1,5-a]pyrimidine-5-carbonyl)-1-methyl-1,2,3,4-tetrahydro-isoquinoline] | 0.036 |  |  | CC50 at 3 days [1]: 33900 nM
C[C@@H]1c2ccccc2CCN1C(=O)c1cc(C2CC2)n2nc(-c3ccc(N4C[C@@H](C(N)=O)C[C@@H]4C)cc3F)cc2n1 (relative stereo) [Compound 35, (3*S,5*S)-1-(4-{7-cyclopropyl-5-[(1R)-1-methyl-1,2,3,4-tetrahydroisoquinoline-2-carbonyl]pyrazolo[1,5-a]pyrimidin-2-yl}-3-fluorophenyl)-5-methylpyrrolidine-3-carboxamide] |  |  |  | CC50 (HeLa cells [2]): 25500 nM; EC50 (rgRSV224 virus; [6]): 0.033 µM
CNC(=O)[C@H]1CCN(c2ccc(-c3cc4nc(C(=O)N5CCc6ccccc6[C@H]5C)cc(C5CC5)n4n3)c(F)c2)C1 [Compound 37, (3S)-1-(4-{7-Cyclopropyl-5-[(1R)-1-methyl-1,2,3,4-tetrahydroisoquinoline-2-carbonyl]pyrazolo[1,5-a]pyrimidin-2-yl}-3-fluorophenyl)-N-methylpyrrolidine-3-carboxamide] | 0.019 | 62 | 123.18 | plasma concentration profile [3]: does not show this rapid decline
C[C@@H]1c2ccccc2CCN1C(=O)c1cc(C2CC2)n2nc(-c3ccc(N4C[C@H](O)[C@@H](O)C4)cc3F)cc2n1 [Compound 102, (7-cyclopropyl-2-(4-((3S,4S)-3,4-dihydroxypyrrolidin-1-yl)-2-fluorophenyl)pyrazolo[1,5-a]pyrimidin-5-yl)((R)-1-methyl-3,4-dihydroisoquinolin-2(1H)-yl)methanone] | 0.026 | 44.4 |  | plasma concentration profile [3]: does not show this rapid decline
C[C@@H]1c2ccccc2CCN1C(=O)c1cc(C2CC2)n2nc(-c3ccc(N4CC[C@H](NP(C)(C)=O)C4)cc3F)cc2n1 [Compound 31, (1R)-2-(7-Cyclopropyl-2-{4-[(3S)-3-[(dimethylphosphoryl)amino]pyrrolidin-1-yl]-2-fluorophenyl}pyrazolo[1,5-a]pyrimidine-5-carbonyl)-1-methyl-1,2,3,4-tetrahydro-isoquinoline] | 0.036 |  |  | CC50 at 3 days [1]: 39100 nM
C[C@@H]1c2ccccc2CCN1C(=O)c1cc(C2CC2)n2nc(-c3ccc(N4CCC(O)(CO)C4)cc3F)cc2n1 (single isomer, unassigned) [Compound 104] |  |  |  | CC50 (HeLa cells [2]; human, 3 days): 28200 nM; EC50 (rgRSV224 virus; read-out: RSV HELA EC50, rgRSV224 virus (MOI=1), HeLa cells, GFP expression three days post-virus exposure): 0.025 µM
C[C@@H]1c2ccccc2CCN1C(=O)c1cc(C2CC2)n2nc(-c3ccc(N4C[C@@H](C(N)=O)C[C@H]4C)cc3F)cc2n1 (relative stereo) [Compound 34, (3*S,5*R)-1-(4-{7-cyclopropyl-5-[(1R)-1-methyl-1,2,3,4-tetrahydroisoquinoline-2-carbonyl]pyrazolo[1,5-a]pyrimidin-2-yl}-3-fluorophenyl)-5-methylpyrrolidine-3-carboxamide] |  |  |  | CC50 (HeLa cells [4]): 23100 nM; EC50 (rgRSV224 virus; [6]): 0.037 µM
C[C@@H]1c2ccccc2CCN1C(=O)c1cc(C2CC2)n2nc(-c3ccc(N4CCCC(O)C4)cc3F)cc2n1 (stereo partly drawn) [Compound 75, 1-(4-{7-Cyclopropyl-5-[(1R)-1-methyl-1,2,3,4-tetrahydroisoquinoline-2-carbonyl]-pyrazolo[1,5-a]pyrimidin-2-yl}-3-fluorophenyl)piperidin-3-ol] | 0.076 | > 100 | 197.51 | 
C[C@@H]1c2ccccc2CCN1C(=O)c1cc(C2CC2)n2nc(-c3ccc(N4CC[C@H](C(N)=O)C4)cc3F)cc2n1 [Compound 36, (3S)-1-(4-{7-Cyclopropyl-5-[(1R)-1-methyl-1,2,3,4-tetrahydroisoquinoline-2-carbonyl]pyrazolo[1,5-a]pyrimidin-2-yl}-3-fluorophenyl)pyrrolidine-3-carboxamide] | 0.012 | 29.3 | 237.7 | 
C[C@@H]1c2ccccc2CCN1C(=O)c1cc(C2CC2)n2nc(-c3cnc(N4CC[C@H](C(N)=O)C4)cc3F)cc2n1 [Compound 52, (3S)-1-(5-{7-Cyclopropyl-5-[(1R)-1-methyl-1,2,3,4-tetrahydroisoquinoline-2-carbonyl]-pyrazolo[1,5-a]pyrimidin-2-yl}-4-fluoropyridin-2-yl)pyrrolidine-3-carboxamide] | 0.014 | 41.3 | 246.17 | 
